Results published in US20260356819A1, “OXOISOINDOLINYL-SUBSTITUTED […] DERIVATIVE AND USE THEREOF” (GLUETACS THERAPEUTICS (SHANGHAI) CO., LTD., priority 2023, published 2026).

Experiments:
Type in all cases: cell-based
Details in all cases: compounds at 50 nM and 500 nM
CK1α = molecular target: T1, CK1α (Homo sapiens, UniProt P48729+Q96SW2); test: Western blot degradation of CK1α in hPBMCs (24 h)
T1 construct: The supernatant was aspirated as the extracted total cell protein; endogenous in cells; host or cells: human peripheral blood mononuclear cells (hPBMCs)
T1 sequence (P48729 whole entry): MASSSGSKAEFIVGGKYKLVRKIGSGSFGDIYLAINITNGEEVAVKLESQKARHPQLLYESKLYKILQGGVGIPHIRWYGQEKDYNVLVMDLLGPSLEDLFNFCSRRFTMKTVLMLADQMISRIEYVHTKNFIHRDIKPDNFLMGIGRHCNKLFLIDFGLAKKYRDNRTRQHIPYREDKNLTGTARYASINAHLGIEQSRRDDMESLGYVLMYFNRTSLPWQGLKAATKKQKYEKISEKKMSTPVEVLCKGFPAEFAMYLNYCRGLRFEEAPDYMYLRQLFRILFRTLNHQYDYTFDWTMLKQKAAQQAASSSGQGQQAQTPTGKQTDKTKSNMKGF
T1 sequence (Q96SW2 whole entry): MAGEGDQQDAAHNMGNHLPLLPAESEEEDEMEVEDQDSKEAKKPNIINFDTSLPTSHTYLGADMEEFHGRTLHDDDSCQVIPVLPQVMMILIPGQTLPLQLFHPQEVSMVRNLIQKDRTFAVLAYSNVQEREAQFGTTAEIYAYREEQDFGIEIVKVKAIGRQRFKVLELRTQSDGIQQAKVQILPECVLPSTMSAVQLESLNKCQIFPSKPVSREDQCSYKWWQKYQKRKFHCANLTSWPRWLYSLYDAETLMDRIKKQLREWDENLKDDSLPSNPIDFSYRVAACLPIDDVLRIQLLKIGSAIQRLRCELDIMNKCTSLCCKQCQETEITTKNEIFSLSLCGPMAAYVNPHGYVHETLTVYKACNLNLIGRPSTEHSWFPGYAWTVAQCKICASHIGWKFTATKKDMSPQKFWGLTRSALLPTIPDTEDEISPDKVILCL
T1 sequence (Q16531 whole entry partner): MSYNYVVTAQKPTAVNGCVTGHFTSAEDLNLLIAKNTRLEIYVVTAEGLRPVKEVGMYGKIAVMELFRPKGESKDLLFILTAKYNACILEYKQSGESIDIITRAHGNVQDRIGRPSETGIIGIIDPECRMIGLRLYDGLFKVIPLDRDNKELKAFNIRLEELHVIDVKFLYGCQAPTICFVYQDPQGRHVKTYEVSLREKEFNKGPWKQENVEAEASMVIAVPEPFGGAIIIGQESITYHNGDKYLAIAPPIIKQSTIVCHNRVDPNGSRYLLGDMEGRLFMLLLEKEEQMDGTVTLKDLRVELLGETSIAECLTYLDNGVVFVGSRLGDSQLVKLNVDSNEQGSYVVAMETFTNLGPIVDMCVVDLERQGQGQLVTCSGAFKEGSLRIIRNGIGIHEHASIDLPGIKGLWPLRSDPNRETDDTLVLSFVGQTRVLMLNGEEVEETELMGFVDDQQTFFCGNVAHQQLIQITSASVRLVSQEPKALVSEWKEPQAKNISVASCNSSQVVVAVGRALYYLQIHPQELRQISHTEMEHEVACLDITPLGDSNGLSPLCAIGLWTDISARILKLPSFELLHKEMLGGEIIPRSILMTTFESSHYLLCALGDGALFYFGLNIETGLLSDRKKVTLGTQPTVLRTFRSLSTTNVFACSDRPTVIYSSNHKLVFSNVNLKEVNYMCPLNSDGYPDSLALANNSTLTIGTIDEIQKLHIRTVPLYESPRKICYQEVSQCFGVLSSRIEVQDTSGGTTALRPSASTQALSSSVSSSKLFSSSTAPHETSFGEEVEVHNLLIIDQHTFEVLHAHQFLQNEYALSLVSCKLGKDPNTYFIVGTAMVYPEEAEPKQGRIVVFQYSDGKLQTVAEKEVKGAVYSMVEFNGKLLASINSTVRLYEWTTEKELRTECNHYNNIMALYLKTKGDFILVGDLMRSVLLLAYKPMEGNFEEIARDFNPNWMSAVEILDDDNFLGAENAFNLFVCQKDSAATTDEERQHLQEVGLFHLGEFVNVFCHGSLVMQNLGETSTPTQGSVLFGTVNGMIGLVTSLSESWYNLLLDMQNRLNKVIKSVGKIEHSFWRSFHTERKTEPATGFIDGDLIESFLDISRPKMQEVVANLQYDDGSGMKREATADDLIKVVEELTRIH
Method in brief: (§1)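 In this assay, each compound was incubated with human PBMCs for 24 h at 50 nM and 500 nM. Target levels were measured by Western blot densitometry normalised to an internal control.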

IKZF2 = molecular target: T2, IKZF2 (Homo sapiens, UniProt Q96SW2+Q9UKS7); test: Western blot degradation of IKZF2 in hPBMCs (24 h)
T2 construct: The supernatant was aspirated as the extracted total cell protein; endogenous in cells; host or cells: human peripheral blood mononuclear cells (hPBMCs)
Method in brief: as §1

IKZF3 = molecular target: T3, IKZF3 (Homo sapiens, UniProt Q96SW2+Q9UKT9); test: Western blot degradation of IKZF3 in hPBMCs (24 h)
T3 construct: The supernatant was aspirated as the extracted total cell protein; endogenous in cells; host or cells: human peripheral blood mononuclear cells (hPBMCs)
T3 sequence (Q9UKT9 whole entry): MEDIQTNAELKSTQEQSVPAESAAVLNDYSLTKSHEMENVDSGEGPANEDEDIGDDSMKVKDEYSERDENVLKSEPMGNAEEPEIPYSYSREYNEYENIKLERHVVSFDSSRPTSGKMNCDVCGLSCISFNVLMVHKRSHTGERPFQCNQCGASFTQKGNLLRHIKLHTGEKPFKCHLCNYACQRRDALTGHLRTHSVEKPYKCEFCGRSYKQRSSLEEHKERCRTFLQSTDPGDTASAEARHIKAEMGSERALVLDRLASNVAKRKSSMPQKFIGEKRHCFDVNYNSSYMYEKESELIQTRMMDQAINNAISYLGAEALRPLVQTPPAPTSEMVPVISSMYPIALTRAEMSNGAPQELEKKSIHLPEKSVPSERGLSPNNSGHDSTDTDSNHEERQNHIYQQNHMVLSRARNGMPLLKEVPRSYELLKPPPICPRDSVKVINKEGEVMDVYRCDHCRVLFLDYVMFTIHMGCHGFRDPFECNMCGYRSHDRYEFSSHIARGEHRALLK
T3 sequence (Q96SW2 whole entry): as the sequence (Q96SW2 whole entry) above
T3 sequence (Q16531 whole entry partner): as the sequence (Q16531 whole entry partner) above
Method in brief: as §1

WEE1 = molecular target: T4, WEE1 (Homo sapiens, UniProt P30291+Q96SW2); test: Western blot degradation of WEE1 in hPBMCs (24 h)
T4 construct: The supernatant was aspirated as the extracted total cell protein; endogenous in cells; host or cells: human peripheral blood mononuclear cells (hPBMCs)
T4 sequence (P30291 whole entry): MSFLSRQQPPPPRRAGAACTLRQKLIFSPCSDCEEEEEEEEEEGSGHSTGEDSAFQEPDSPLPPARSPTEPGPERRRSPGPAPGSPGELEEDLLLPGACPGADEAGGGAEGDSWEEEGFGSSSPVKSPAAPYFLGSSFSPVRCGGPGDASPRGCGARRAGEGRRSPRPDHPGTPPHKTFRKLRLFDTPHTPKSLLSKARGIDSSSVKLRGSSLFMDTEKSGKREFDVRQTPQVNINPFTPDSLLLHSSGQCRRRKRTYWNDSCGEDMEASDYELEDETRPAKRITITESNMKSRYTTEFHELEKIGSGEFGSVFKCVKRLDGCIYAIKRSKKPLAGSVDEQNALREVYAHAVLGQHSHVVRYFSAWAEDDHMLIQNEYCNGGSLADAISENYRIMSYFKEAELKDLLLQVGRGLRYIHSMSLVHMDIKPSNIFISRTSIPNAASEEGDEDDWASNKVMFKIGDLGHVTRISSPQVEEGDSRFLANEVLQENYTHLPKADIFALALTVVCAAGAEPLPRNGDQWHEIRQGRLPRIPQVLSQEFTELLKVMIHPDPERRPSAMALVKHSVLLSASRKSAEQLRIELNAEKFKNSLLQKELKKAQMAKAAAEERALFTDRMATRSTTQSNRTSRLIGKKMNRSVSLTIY
T4 sequence (Q96SW2 whole entry): as the sequence (Q96SW2 whole entry) above
T4 sequence (Q16531 whole entry partner): as the sequence (Q16531 whole entry partner) above
Method in brief: as §1

GSPT1 = molecular target: T5, GSPT1 (Homo sapiens, UniProt P15170+Q96SW2); test: Western blot degradation of GSPT1 in hPBMCs (24 h)
T5 construct: The supernatant was aspirated as the extracted total cell protein; endogenous in cells; host or cells: human peripheral blood mononuclear cells (hPBMCs)
T5 sequence (P15170 whole entry): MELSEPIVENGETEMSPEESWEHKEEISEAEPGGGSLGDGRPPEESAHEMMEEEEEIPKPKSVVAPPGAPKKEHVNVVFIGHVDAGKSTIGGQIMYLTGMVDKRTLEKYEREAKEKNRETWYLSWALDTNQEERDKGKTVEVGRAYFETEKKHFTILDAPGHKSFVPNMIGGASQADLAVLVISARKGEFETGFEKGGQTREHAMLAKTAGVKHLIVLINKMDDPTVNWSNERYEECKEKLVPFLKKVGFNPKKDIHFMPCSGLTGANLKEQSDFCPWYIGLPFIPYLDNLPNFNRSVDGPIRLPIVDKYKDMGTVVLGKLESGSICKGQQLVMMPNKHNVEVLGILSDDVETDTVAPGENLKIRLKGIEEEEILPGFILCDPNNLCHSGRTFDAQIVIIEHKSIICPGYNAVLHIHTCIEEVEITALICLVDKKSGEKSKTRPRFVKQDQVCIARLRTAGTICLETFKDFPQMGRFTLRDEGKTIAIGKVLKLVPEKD
T5 sequence (Q96SW2 whole entry): as the sequence (Q96SW2 whole entry) above
T5 sequence (Q16531 whole entry partner): as the sequence (Q16531 whole entry partner) above
Method in brief: as §1

IKZF1 = molecular target: T6, IKZF1 (Homo sapiens, UniProt Q13422+Q96SW2); test: Western blot degradation of IKZF1 in hPBMCs (24 h)
T6 construct: The supernatant was aspirated as the extracted total cell protein; endogenous in cells; host or cells: human peripheral blood mononuclear cells (hPBMCs)
T6 sequence (Q13422 whole entry): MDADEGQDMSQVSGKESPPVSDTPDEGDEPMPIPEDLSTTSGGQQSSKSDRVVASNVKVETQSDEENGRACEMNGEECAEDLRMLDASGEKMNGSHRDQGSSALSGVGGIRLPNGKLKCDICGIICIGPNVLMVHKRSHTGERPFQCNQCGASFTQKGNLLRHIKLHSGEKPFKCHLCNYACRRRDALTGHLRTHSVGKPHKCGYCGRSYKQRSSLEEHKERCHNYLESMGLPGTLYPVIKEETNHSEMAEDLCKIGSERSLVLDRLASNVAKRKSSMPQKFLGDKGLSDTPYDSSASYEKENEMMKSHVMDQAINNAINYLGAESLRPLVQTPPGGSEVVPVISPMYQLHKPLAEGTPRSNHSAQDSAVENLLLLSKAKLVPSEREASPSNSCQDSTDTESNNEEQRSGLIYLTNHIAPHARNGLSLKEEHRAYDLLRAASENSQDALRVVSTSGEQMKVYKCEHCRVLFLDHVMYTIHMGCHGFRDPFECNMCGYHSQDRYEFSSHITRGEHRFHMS
T6 sequence (Q96SW2 whole entry): as the sequence (Q96SW2 whole entry) above
T6 sequence (Q16531 whole entry partner): as the sequence (Q16531 whole entry partner) above
Method in brief: as §1

| SMILES | CK1α substrate protein remaining % (CK1α) | IKZF2 substrate protein remaining % (IKZF2) | IKZF3 substrate protein remaining % (IKZF3) | WEE1 substrate protein remaining % (WEE1) | GSPT1 substrate protein remaining % (GSPT1) | IKZF1 substrate protein remaining % (IKZF1) |
| --- | --- | --- | --- | --- | --- | --- |
| Cc1sc2ncnc(N3CCCN(Cc4ccc5c(c4)C(=O)N(N4CCC(=O)NC4=O)C5=O)CC3)c2c1C [GT-08095, 5-((4-(5,6-dimethylthieno[2,3-d]pyrimidin-4-yl)-1,4-diazepan-1-yl)methyl)-2-(2,4-dioxotetrahydropyrimidin-1(2H)-yl)isoindoline-1,3-dione] | A (0% ≤ substrate protein remaining % ≤80%) | B (80%< substrate protein remaining % ≤100%) | B (80%< substrate protein remaining % ≤100%) | A (0% ≤ substrate protein remaining % ≤80%) | B (80%< substrate protein remaining % ≤100%) | B (80%< substrate protein remaining % ≤100%) |
| O=C1CCN(N2C(=O)c3ccc(CN4CCN(c5ncnc6sc(Br)cc56)CC4)cc3C2=O)C(=O)N1 [GT-08096, 5-((4-(6-bromothieno[2,3-d]pyrimidin-4-yl)piperazin-1-yl)methyl)-2-(2,4-dioxotetrahydropyrimidin-1(2H)-yl)isoindoline-1,3-dione] | A (0% ≤ substrate protein remaining % ≤80%) | B (80%< substrate protein remaining % ≤100%) | B (80%< substrate protein remaining % ≤100%) | A (0% ≤ substrate protein remaining % ≤80%) | A (0% ≤ substrate protein remaining % ≤80%) | B (80%< substrate protein remaining % ≤100%) |
| O=C1CCN(N2C(=O)c3ccc(CN4CCN(c5ncnc6sc(-c7ccccc7)cc56)CC4)cc3C2=O)C(=O)N1 [GT-08097, 2-(2,4-dioxotetrahydropyrimidin-1(2H)-yl)-5-((4-(6-phenylthieno[2,3-d]pyrimidin-4-yl)piperazin-1-yl)methyl)isoindoline-1,3-dione] | A (0% ≤ substrate protein remaining % ≤80%) | B (80%< substrate protein remaining % ≤100%) | B (80%< substrate protein remaining % ≤100%) | A (0% ≤ substrate protein remaining % ≤80%) | A (0% ≤ substrate protein remaining % ≤80%) | B (80%< substrate protein remaining % ≤100%) |
| O=C1CCN(N2C(=O)c3ccc(CN4CCN(c5ncnc6scc(-c7ccccc7)c56)CC4)cc3C2=O)C(=O)N1 [GT-08098, 2-(2,4-dioxotetrahydropyrimidin-1(2H)-yl)-5-((4-(5-phenylthieno[2,3-d]pyrimidin-4-yl)piperazin-1-yl)methyl)isoindoline-1,3-dione] | B (80%< substrate protein remaining % ≤100%) | B (80%< substrate protein remaining % ≤100%) | B (80%< substrate protein remaining % ≤100%) | B (80%< substrate protein remaining % ≤100%) | A (0% ≤ substrate protein remaining % ≤80%) | B (80%< substrate protein remaining % ≤100%) |
| Cc1nc(N2CCN(Cc3ccc4c(c3)C(=O)N(N3CCC(=O)NC3=O)C4=O)CC2)c2c(-c3ccccc3)csc2n1 [GT-08099, 2-(2,4-dioxotetrahydropyrimidin-1(2H)-yl)-5-((4-(2-methyl-5-phenylthieno[2,3-d]pyrimidin-4-yl)piperazin-1-yl)methyl)isoindoline-1,3-dione] | B (80%< substrate protein remaining % ≤100%) | B (80%< substrate protein remaining % ≤100%) | B (80%< substrate protein remaining % ≤100%) | B (80%< substrate protein remaining % ≤100%) | A (0% ≤ substrate protein remaining % ≤80%) | B (80%< substrate protein remaining % ≤100%) |
| O=C1CCN(N2C(=O)c3ccc(CN4CCN(c5ncnc6sc7c(c56)CCC7)CC4)cc3C2=O)C(=O)N1 [GT-08103, 5-((4-(6,7-dihydro-5H-cyclopenta[4,5]thieno[2,3-d]pyrimidin-4-yl)piperazin-1-yl)methyl)-2-(2,4-dioxotetrahydropyrimidin-1(2H)-yl)isoindoline-1,3-dione] | B (80%< substrate protein remaining % ≤100%) | A (0% ≤ substrate protein remaining % ≤80%) | A (0% ≤ substrate protein remaining % ≤80%) | B (80%< substrate protein remaining % ≤100%) | B (80%< substrate protein remaining % ≤100%) | B (80%< substrate protein remaining % ≤100%) |
| Cc1nc(N2CCN(Cc3ccc4c(c3)C(=O)N(N3CCC(=O)NC3=O)C4=O)CC2)c2c3c(sc2n1)CCC3 [GT-08104, 2-(2,4-dioxotetrahydropyrimidin-1(2H)-yl)-5-((4-(2-methyl-6,7-dihydro-5H-cyclopenta[4,5]thieno[2,3-d]pyrimidin-4-yl)piperazin-1-yl)methyl)isoindoline-1,3-dione] | B (80%< substrate protein remaining % ≤100%) | A (0% ≤ substrate protein remaining % ≤80%) | A (0% ≤ substrate protein remaining % ≤80%) | A (0% ≤ substrate protein remaining % ≤80%) | A (0% ≤ substrate protein remaining % ≤80%) | B (80%< substrate protein remaining % ≤100%) |
| O=C1CCN(N2C(=O)c3ccc(CN4CCN(c5ncc6ccsc6n5)CC4)cc3C2=O)C(=O)N1 [GT-08105, 2-(2,4-dioxotetrahydropyrimidin-1(2H)-yl)-5-((4-(thieno[2,3-d]pyrimidin-2-yl)piperazin-1-yl)methyl)isoindoline-1,3-dione] | B (80%< substrate protein remaining % ≤100%) | A (0% ≤ substrate protein remaining % ≤80%) | A (0% ≤ substrate protein remaining % ≤80%) | B (80%< substrate protein remaining % ≤100%) | A (0% ≤ substrate protein remaining % ≤80%) | B (80%< substrate protein remaining % ≤100%) |
| O=C1CCN(N2C(=O)c3ccc(CN4CCC(c5ncnc6sccc56)CC4)cc3C2=O)C(=O)N1 [GT-08106, 2-(2,4-dioxotetrahydropyrimidin-1(2H)-yl)-5-((4-(thieno[2,3-d]pyrimidin-4-yl)piperidin-1-yl)methyl)isoindoline-1,3-dione] | B (80%< substrate protein remaining % ≤100%) | B (80%< substrate protein remaining % ≤100%) | B (80%< substrate protein remaining % ≤100%) | A (0% ≤ substrate protein remaining % ≤80%) | A (0% ≤ substrate protein remaining % ≤80%) | B (80%< substrate protein remaining % ≤100%) |
| Cc1cc2c(C3CCN(Cc4ccc5c(c4)C(=O)N(N4CCC(=O)NC4=O)C5=O)CC3)ncnc2s1 [GT-08107, 2-(2,4-dioxotetrahydropyrimidin-1(2H)-yl)-5-((4-(6-methylthieno[2,3-d]pyrimidin-4-yl)piperidin-1-yl)methyl)isoindoline-1,3-dione] | A (0% ≤ substrate protein remaining % ≤80%) | A (0% ≤ substrate protein remaining % ≤80%) | A (0% ≤ substrate protein remaining % ≤80%) | A (0% ≤ substrate protein remaining % ≤80%) | A (0% ≤ substrate protein remaining % ≤80%) | A (0% ≤ substrate protein remaining % ≤80%) |
| O=C1CCN(N2C(=O)c3ccc(CN4CCC(c5ncnc6sc(-c7ccccc7)cc56)CC4)cc3C2=O)C(=O)N1 [GT-08108, 2-(2,4-dioxotetrahydropyrimidin-1(2H)-yl)-5-((4-(6-phenylthieno[2,3-d]pyrimidin-4-yl)piperidin-1-yl)methyl)isoindoline-1,3-dione] | A (0% ≤ substrate protein remaining % ≤80%) | A (0% ≤ substrate protein remaining % ≤80%) | A (0% ≤ substrate protein remaining % ≤80%) | A (0% ≤ substrate protein remaining % ≤80%) | A (0% ≤ substrate protein remaining % ≤80%) | A (0% ≤ substrate protein remaining % ≤80%) |
| O=C1CCN(N2C(=O)c3ccc(CN4CCC(c5ncnc6scc(-c7ccccc7)c56)CC4)cc3C2=O)C(=O)N1 [GT-08109, 2-(2,4-dioxotetrahydropyrimidin-1(2H)-yl)-5-((4-(5-phenylthieno[2,3-d]pyrimidin-4-yl)piperidin-1-yl)methyl)isoindoline-1,3-dione] | A (0% ≤ substrate protein remaining % ≤80%) | A (0% ≤ substrate protein remaining % ≤80%) | A (0% ≤ substrate protein remaining % ≤80%) | A (0% ≤ substrate protein remaining % ≤80%) | A (0% ≤ substrate protein remaining % ≤80%) | A (0% ≤ substrate protein remaining % ≤80%) |
